Measured values published in patent US20260355239A1, “COMBINATION OF A T CELL THERAPY AND CONTINUOUS OR INTERMITTENT DGK INHIBITOR DOSING” (Juno Therapeutics, Inc., priority 2022, published 2026).

Key:
[1] = test system: anti-CD19 CAR-T cells with K562.CD19, Granta-519 and Raji cells; assay: Rescue treatment: cytokine production of chronically stimulated CAR-T cells, 2D co-culture; format: cell-based, human; conditions: 48 h
[2] = test system: anti-CD19 CAR-T cells with A549.CD19 and Granta-519 tumor spheroids; assay: Rescue treatment: cytokine production of chronically stimulated CAR-T cells, 3D spheroids; format: cell-based, human; conditions: 3D spheroid co-culture, five days
Description: Anti-CD19 CAR-expressing T cells, produced as described in Example 2, were chronically stimulated with plate-bound CAR-specific anti-idiotypic antibody for seven days as described in Example 3, but in the absence of Compound 17 during chronic stimulation. Instead, chronically stimulated CAR T cells were treated with Compound 17 during re-challenge with CD19-expressing tumor cells, after which cytolytic activity and cytokine production were assessed.
Cytolytic activity also was assessed in CD19-expressing tumor spheroid cultures incubated with chronically stimulated CAR-T cells in the presence of DGKi. A549 CD19+ tumor spheroids or Granta-519 tumor spheroids were incubated with the anti-CD19 CAR-expressing T cells at an effector to target ratio of 1:2 for up to 14 days in the presence of DGKi (0-1000 nM). The tumor spheroids were engineered to express a red fluorescent dye to permit monitoring of tumor cell lysis by microscopy during the assay. Cytolytic activity was assessed by monitoring fluorescence over time, and the tumor volume (normalized to time zero) was measured as the number of red calibrated units (RCU)×μm^2 area. […]
Supernatant was collected at day 5 from the above tumor spheroid cultures with chronically stimulated CAR-expressing T cells. Cytokine production was measured from the supernatant by meso scale discovery (MSD) analysis of the collected cell supernatants. […]

[3] = test system: CD19-expressing lymphoma cells (K562.CD19, Granta-519, Raji); assay: Cytolytic activity of chronically stimulated, concurrently treated CAR-T cells, 2D co-culture; format: cell-based, human; conditions: concurrent treatment during chronic stimulation; 2D re-challenge without compound
Description: To simulate conditions of chronic stimulation, approximately 20,000 anti-CD19 CAR-expressing T cells of a combined CAR-T cell composition produced as described in Example 2 from two healthy adult donors were incubated with 30 µg/mL of plate-bound CAR-specific anti-idiotypic antibody (see, e.g., WO2018/023100) at 37 °C for a period of seven days. During this seven-day period, engineered CAR T cells were concurrently treated with Compound 17(0.1-1000 nM) or a vehicle control added at day 0.
Stimulated CAR T cells were then re-challenged with CD19-expressing tumor cells or tumor spheroids in the absence of Compound 17, and cytolytic activity and cytokine production were assessed.
To assess cytolytic function, the stimulated CAR-T cell composition was co-cultured with various CD19-expressing lymphoma cells at a 2.5:1 effector:target ratio. The tumor cells were engineered to express NucLight Red (NLR) and tumor cell number was monitored by Incucyte®. […] Duplicate values for cell compositions manufactured from the two different healthy donors are shown.

[4] = test system: Raji-rFluc cells; assay: In vivo anti-tumor effect with lower CAR T cell dose, Raji-rFluc NSG mice (Example 7)
Description: The in vivo anti-tumor effects of a continuous Compound 17 dosing regimen in combination with a lower dose of CD19-directed CAR T cells were assessed.
These doses of CAR-expressing T cells were not expected to achieve complete tumor rejection.

[5] = test system: CAR-expressing T cells; assay: Chronic stimulation assay, concurrent treatment: tumor cell numbers, spheroid volume and cytokines during re-challenge of CAR-expressing T cells (FIGS. 5A-6B); format: cell-based, human
Source text: FIGS. 5A-5B and 6A-6B show cytolytic activity and cytokine production during re-challenge of CAR-expressing T cells chronically stimulated in the presence of Compound 17 (concurrent treatment).
These observations were made using a chronic stimulation assay to render T cells (e.g. CAR T cells) hypofunctional (e.g. reduced cytolysis and IL-2 secretion). Using this model, engineered T cells (e.g. CAR T cells or eTCR T cells) were examined to assess impact of DGKi, such as Compound 17, on function of the engineered T cells when present during (concurrent) or following (rescue) exposure to conditions leading to a hypofunctional, exhaustive state.

[6] = test system: Granta-519 cells; assay: Rescue treatment: cytolytic activity of chronically stimulated CAR-T cells, 2D, Granta-519; format: cell-based, human; conditions: higher concentrations, 2D co-culture
[7] = test system: eTCR T cells; assay: Rescue treatment: proliferation of chronically stimulated eTCR T cells on re-stimulation; format: cell-based, human; conditions: 100 nM, 7 day re-stimulation with 20 μg/mL anti-Vbeta
Source text: Primary human CD4+ and CD8+ T cells were isolated from healthy donors by immunoaffinity-based methods. The isolated CD4+ and CD8+ T cells were combined and stimulated with an anti-CD3/anti-CD28 reagent, and then were transduced with a lentiviral vector encoding an anti-human papillomavirus 16 (anti-HPV16) eTCR. The nucleotide sequences encoding the beta chain and the alpha chain of the eTCR were separated by a sequence encoding a 2A ribosome skip element. Following transduction, the cells were cultured in media containing human serum and cytokines for 9-10 days prior to further assessment.
In another experiment to assess activity of the DGKi to rescue or reverse exhaustion, eTCR T cells were chronically stimulated for 6 days as described above in the absence of Compound 17. Then, chronically stimulated eTCR T cells or freshly thawed eTCR T cells that had not been chronically stimulated were re-stimulated with 20 μg/mL plate-bound antibody against the Vbeta chain of the eTCR in the presence of 100 nM Compound 17 for 7 days. As a control, chronically stimulated eTCR T cells were re-stimulated in the absence of Compound 17 for 7 days. At the end of the 7 day re-stimulation, cell counts were determined.

[8] = 0.3 or 0.6 mg/kg oral once daily Days 1-30 with 0.5×10^6 or 1×10^6 CAR T cells, vs CAR T cells alone

## CC[C@H]1CN([C@@H](CC)c2ccc(C(F)(F)F)cc2)[C@H](CC)CN1c1nc(=O)n(C)c2ccc(C#N)nc12 [Compound 17, 4-((2S,5R)-2,5-diethyl-4-((S)-1-(4-(trifluoromethyl)phenyl)propyl)piperazin-1-yl)-1-methyl-2-oxo-1,2-dihydropyrido[3,2-d]pyrimidine-6-carbonitrile]
[1]
  production of IFNγ, IL-2 and TNFα: dose-dependent increase in production of all three cytokines
[2]
  production of IFNγ, IL-2 and TNFα: dose-dependent increase in production of all three cytokines
[3]
  CAR-T cell cytolytic activity against CD19-expressing lymphoma cells: decreased CAR-T cell cytolytic activity against the CD19-expressing lymphoma cells in a dose-dependent manner
[4]; 0.3 or 0.6 mg/kg oral once daily Days 1-30, all groups
  CAR T cell expansion and/or persistence: increased CAR T cell expansion and/or persistence in all groups
[4]; [8]
  survival: improved survival in all groups
  tumor burden: lowered tumor burden
  tumor suppression (tumor control index): enhanced tumor suppression in all groups
[4]; 0.5×10^6 CAR T cells + 0.3 mg/kg, relative to higher CAR T cell dose in combination with Compound 17
  CAR T cell expansion, lower CAR T cell dose: CAR T cell expansion was delayed
[4]; 0.5×10^6 CAR T cells + 0.3 mg/kg, vs higher CAR T cell dose alone
  circulating CAR T cell counts, lower CAR T cell dose: later exceeded circulating CAR T cell counts for the group that received the higher CAR T cell dose alone
[5]
  effect of concurrent treatment on hypofunctionality upon rechallenge with antigen: reversed activity and phenotypes associated with T cell hypofunctionality and preserved more effector function
[6]
  cytolytic activity of CAR T cells against Granta-519 cells: improved the cytolytic activity of CAR T cells against K562.CD19 and Granta-519 cells
[7]
  proliferation of chronically stimulated eTCR T cells (cell counts): increased proliferation of the eTCR T cells
